Data as given in US20030039673A1, “DISINFECTION BY PARTICLE-BOUND AND INS[…]” (priority 1997, published 2003).

Legend:
[1] = Detergent binding to resin, foaming of supernatant; format: physicochemical; design: key: foaming presence (+); absence (−); settings: 10 mM detergent solution incubated with resin beads
[2] = Detergent binding to resin, foaming of supernatant; format: physicochemical; design: key: foaming presence (+); absence (−); settings: 10 mM detergent solution incubated with resin beads; remark: listed apart in the source
[3] = Detergent binding to resin, foaming of supernatant; format: physicochemical; design: key: foaming presence (+); absence (−); settings: 10 mM detergent solution incubated with resin beads; remark: listed apart in the source
viruses = settings: even in the presence of plasma proteins; basis of copending application Ser. No. 08/785,984; cited from earlier work
EMC virus = experiment: Viral end point assay of EMC-spiked plasma; format: cell-based

Compound	foaming of supernatant as indicator of detergent presence, Calbiosorb [1]	foaming of supernatant as indicator of detergent presence, Polystyrene [2]	foaming of supernatant as indicator of detergent presence, Purolite [3]	level effective at inactivating some viruses (viruses)	Titer (EMC virus; 100 mM triclosan in 2% aqueous Triton X-100, 5 mL added to 50 mL EMC-spiked plasma, 60 min room temperature)	virucidal effectiveness compared with Triton plus triclosan (EMC virus; 0.2% Triton alone)	hemolysis (red blood cells (RBC))
C[C@H](CCC(=O)NCCC[N+](C)(C)CCCS(=O)(=O)[O-])[C@H]1CC[C@H]2[C@@H]3[C@H](O)C[C@@H]4C[C@H](O)CC[C@]4(C)[C@H]3C[C@H](O)[C@]12C [CHAPS, 3-[(3-Chloramidopropyl)-dimethylammonio]-1-propanesulfanate]	−	+					
C[C@H](CCC(=O)NCCC[N+](C)(C)CC(O)CS(=O)(=O)[O-])[C@H]1CC[C@H]2[C@@H]3[C@H](O)C[C@@H]4C[C@H](O)CC[C@]4(C)[C@H]3C[C@H](O)[C@]12C (stereo partly drawn) [CHAPSO, 3-[(3-Chloramidopropyl)-dimethylammonio]-2-hydroxyl 1-propanesulfanate]	−	+					
CCCCCCCC(=O)O [Caprylate, caprylic acid]	−	+	−				
C[C@H](CCC(=O)O)[C@H]1CC[C@H]2[C@@H]3[C@H](O)C[C@@H]4C[C@H](O)CC[C@]4(C)[C@H]3C[C@H](O)[C@]12C [Cholate, cholic acid]	−	+	−				
CCCCCCCCOC(=O)CC(C(=O)OCCCCCCCC)S(=O)(=O)O (stereo not drawn) [DSS, dioctyl sulfosuccinate]	−	+	−				
C[C@H](CCC(=O)O)[C@H]1CC[C@H]2[C@@H]3CC[C@@H]4C[C@H](O)CC[C@]4(C)[C@H]3C[C@H](O)[C@]12C [Deoxycholate, deoxycholic acid]	−	+	−				
CCCCCCCCO[C@@H]1O[C@H](CO)[C@@H](O)[C@H](O)[C@H]1O [OG, n-octyl-B-D-glucopyranoside]	−	+	+	about 0.03%			
CCCCCCCCCCCCOS(=O)(=O)[O-].[Na+] [SDS, sodium dodecylsulfate]	−	+	−				
CCCCCCCCCCCCCC[N+](C)(C)C.[Br-] [TTAB, tetradecyltrimethylammonium bromide]	−	+					
Oc1cc(Cl)ccc1Oc1ccc(Cl)cc1Cl [Triclosan, triclosan]					0		
Triton X-100	−	+	+			not nearly effective as Triton plus triclosan	immediate hemolysis
benzalkonium chloride [BC]	−	+					
